Results published in ChEMBL document CHEMBL3774333, “Identification of SNAIL1 Peptide-Based Irreversible Lysine-Specific Demethylase 1-Selective Inactivators” (J Med Chem, 2016).
Active and inactive are the calls of the source. No cut-off for these calls is given here.

Assays:
[1] = target: T1, Lysine-specific histone demethylase 1A (Homo sapiens, UniProt O60341); assay: Inhibition of LSD1 in human HeLa cells assessed as H3K4me2/H3 ratio at 20 uM after 24 hrs by Western blot analysis in absence of fetal bovine serum; format: cell-based
HeLa = assay: Antiproliferative activity against human HeLa cells assessed as inhibition of cell viability at 12.5 to 100 uM treated for 24 hrs measured after 48 hrs by alamar blue assay in absence of fetal bovine serum; format: functional, cell-based
[2] = target: T1, Lysine-specific histone demethylase 1A; assay: biochemical
Description: Inhibition of full length N-terminal His-tagged human recombinant LSD1 (1 to 852 residues) expressed in Escherichia coli BL21(DE3) cells using H3K4me2 peptide as substrate preincubated for 5 mins followed by substrate addition measured for 30 mins by peroxidase coupled assay

Row | Ratio [1] | IC50 [2] [µM] | SMILES | inhibition (HeLa)
1 | 1.06 | – | CC(C)C[C@H](NC(=O)[C@H](CCCCN)NC(=O)[C@H](CO)NC(=O)[C@@H](CCCNC(=N)N)NC(=O)[C@H]1CCCN1)C(=O)N[C@H](C(=O)N[C@@H](CCCNC(=N)N)C(=O)N[C@@H](CCCCNC(=O)[C@@H](CCCNC(=N)N)NC(=O)[C@@H](CCCNC(=N)N)NC(=O)[C@@H](CCCNC(=N)N)NC(=O)[C@@H](CCCNC(=N)N)NC(=O)[C@@H](CCCNC(=N)N)NC(=O)[C@@H](CCCNC(=N)N)NC(=O)[C@@H](CCCNC(=N)N)NC(=O)[C@@H](N)CCCNC(=N)N)C(=O)N1CCC[C@H]1C(=O)N[C@@H](CO)C(=O)N[C@@H](CC(=O)O)C(=O)N1CCC[C@H]1C(=O)N[C@@H](CC(N)=O)C(=O)N[C@@H](CCCNC(=N)N)C(=O)N[C@@H](CCCCN)C(=O)N1CCC[C@H]1C(=O)N[C@H](CC(N)=O)C(=O)N[C@@H](Cc1ccc(O)cc1)C(=O)N[C@@H](CO)C(=O)N[C@@H](CCC(N)=O)C(N)=O)C(C)C | inactive
2 | – | 17 | C#CCN(C)CCC[C@H](NC(=O)[C@H](CO)NC(=O)[C@H](CCCNC(=N)N)NC(=O)[C@@H]1CCCN1)C(=O)N[C@@H](CC(C)C)C(=O)N[C@H](C(=O)N[C@@H](CCCNC(=N)N)C(=O)N[C@@H](CCCCN)C(=O)N1CCC[C@H]1C(=O)N[C@@H](CO)C(=O)N[C@@H](CC(=O)O)C(=O)N1CCC[C@H]1C(=O)N[C@@H](CC(N)=O)C(=O)N[C@@H](CCCNC(=N)N)C(=O)N[C@@H](CCCCN)C(=O)N1CCC[C@H]1C(=O)N[C@@H](CC(N)=O)C(=O)N[C@@H](Cc1ccc(O)cc1)C(=O)N[C@@H](CO)C(=O)N[C@@H](CCC(N)=O)C(N)=O)C(C)C | –
3 | – | 63 | CC(C)C[C@H](NC(=O)[C@H](CCCCN[C@H]1C[C@@H]1c1ccccc1)NC(=O)[C@H](CO)NC(=O)[C@H](CCCNC(=N)N)NC(=O)[C@@H]1CCCN1)C(=O)N[C@H](C(=O)N[C@@H](CCCNC(=N)N)C(=O)N[C@@H](CCCCN)C(=O)N1CCC[C@H]1C(=O)N[C@@H](CO)C(=O)N[C@@H](CC(=O)O)C(=O)N1CCC[C@H]1C(=O)N[C@@H](CC(N)=O)C(=O)N[C@@H](CCCNC(=N)N)C(=O)N[C@@H](CCCCN)C(=O)N1CCC[C@H]1C(=O)N[C@@H](CC(N)=O)C(=O)N[C@@H](Cc1ccc(O)cc1)C(=O)N[C@@H](CO)C(=O)N[C@@H](CCC(N)=O)C(N)=O)C(C)C | –
4 | – | 40 | C#CCN(CCC[C@H](NC(=O)[C@H](CO)NC(=O)[C@H](CCCNC(=N)N)NC(=O)[C@@H]1CCCN1)C(=O)N[C@@H](CC(C)C)C(=O)N[C@H](C(=O)N[C@@H](CCCNC(=N)N)C(=O)N[C@@H](CCCCN)C(=O)N1CCC[C@H]1C(=O)N[C@@H](CO)C(=O)N[C@@H](CC(=O)O)C(=O)N1CCC[C@H]1C(=O)N[C@@H](CC(N)=O)C(=O)N[C@@H](CCCNC(=N)N)C(=O)N[C@@H](CCCCN)C(=O)N1CCC[C@H]1C(=O)N[C@@H](CC(N)=O)C(=O)N[C@@H](Cc1ccc(O)cc1)C(=O)N[C@@H](CO)C(=O)N[C@@H](CCC(N)=O)C(N)=O)C(C)C)Cc1ccccc1 | –
